Patent US20220289732A1, “HETEROCYCLIC WDR5 INHIBITORS AS ANTI-CANCER COMPOUNDS” (NOVARTIS AG, priority 2019, published 2022)
Like-named read-outs stand apart in the source and are kept apart here.

How the values were obtained:
[1] = biological target: WDR5 (Homo sapiens, UniProt P61964); assay: WDR5 HTRF binding assay; conditions: read-out: (a) WDR5 HTRF Pep Val v.1[Inhibitor/IC50]Qualified AC50
Experimental: The compounds were serially diluted 3-fold in DMSO to obtain a total of twelve concentrations. Then the test compounds at each concentration (90 nL of each) were transferred by Mosquito in the white Proxiplate plus 384-well microplate (Perkin Elmer). The assay mixture (typical 9 μL) containing 6 nM WDR5 and 20 nM Biotin-MLL1 WIN peptide (3762-3773) in the assay buffer (25 mM Hepes, pH7.5, 0.05% Tween 20, 2 mM DTT, 100 mM NaCl, 0.1% BSA) were added to the wells. For counter assay, a 9 μL solution of 15 nM Biotin-PEG-His peptide was added into the wells. After 20 min incubation at rt, a 3 μL detection solution containing 14 μg/ml Phycolink Streptavidin Allophycocyanin (Prozyme), 2 nM Anti-His-Eu (PerkinElmer) in assay buffer was then added. After 1 hr incubation, the plate was read in the EnVision reader (PerkinElmer) using the HTRF protocol (The protocol set-up: Lance/Delfia dual enhancer mirror, excitation at 320 UV2 (TRF), emission at APC665, 2nd emission at EuropiμM 615). HTRF signals were normalized based on the reading coming from the positive (maximum signal control) and negative controls (minimum signal control) to give percentage of activities left. The data were then fit to a dose response equation using the program Helios (Novartis) to get the IC50 values. Helios is a Novartis in-house assay data analysis software using the methods described by Normolle, D. P., Statistics in Medicine, 12:2025-2042 (1993); Formenko, I. et al., Computer Methods and programs in Biomedicine, 82, 31-37 (2006); Sebaugh, J. L., Pharmaceutical Statistics, 10:128-134 (2011); Kelly, C. et al., Biometrics, 46(4):1071-1085 (1990); and Kahm, M, et al., Journal of Statistical Software, 33(7):(2010) (grofit: Fitting Biological Growth Curves with R, pages 1-21, available at http://www.jstatsoft.org/).

[2] = biological target: wild type MLL1 four-member complex (MLL1-4C) (Homo sapiens, UniProt P61964); assay: MLL1 LC-MS assay (SAH production); assay type: biochemical; conditions: read-out: (b) MLL LCMS Peptide Val.v.1 Qualified AC50
Experimental: The compounds of the present disclosure were serially and separately diluted 3-fold in DMSO to obtain a total of eight or twelve concentrations. Then the test compounds at each concentration (120 nL of each) were transferred by Mosquito into white Proxiplate plus 384-well microplate (PerkinElmer). Solutions (6 μL) of 60 nM wild type MLL1 four-member complex (MLL1-4C) and 5 μM SAM in the reaction buffer (20 mM Tris-HCl, pH8.0, 0.01% Tween 20, 1 mM DTT, 10 mM MgCl2, 0.01% BSA) were added to the wells that were then incubated with the test compound for 20 min. A 6 μL solution of 20 μM of the peptide substrate H3K4me0 (histone H3[1-21]-Biotin) in the reaction buffer was added to initiate each reaction. The final components in the reaction solution include 30 nM MLL1-4C, 2.5 μM SAM, and 10 μM H3K4me0 with varying concentration of the compounds. A positive control consisted of 30 nM MLL1-4C, 2.5 μM SAM, and 10 μM substrate in the absence of the test compound, and a negative control consisted of 2.5 μM SAM, and 10 μM substrate only. Each reaction was incubated at rt for 120 min, then stopped by addition of 3 μL per of quench solution (2.5% TFA with 320 nM d4-SAH). The reaction mixture was centrifuged (Eppendorf centrifuge 5810, Rotor A-4-62) for 2 min at 2000 rmp. The SAH production from the enzymatic assays were monitored by LC-MS/MS on an API 4000 triple quadrupole mass spec with Turbolon Spray (Applied Biosystem) coupled with Prominenece UFLC (Shimazu). The level of SAH production were then normalized based on the values coming from the positive and negative controls to give percent enzyme activities. The data were then fit to a dose response equation using the program Helios (Novartis) to get the IC50 values of the test compound. Helios is a Novartis in-house assay data analysis software using the methods described by Normolle, D. P., Statistics in Medicine, 12:2025-2042 (1993); Formenko, I. et al., Computer Methods and programs in Biomedicine, 82, 31-37 (2006); Sebaugh, J. L., Pharmaceutical Statistics, 10:128-134 (2011); Kelly, C. et al., Biometrics, 46(4):1071-1085 (1990); and Kahm, M, et al., Journal of Statistical Software, 33(7):(2010) (grofit: Fitting Biological Growth Curves with R, pages 1-21, available at http://www.jstatsoft.org/).

[3] = test system: MV4-11 cells; assay: MV4-11 6-day cell growth CTG (CellTiter-Glo) assay; assay type: cell-based; conditions: 6 days, read-out: (c) MLL/WDR5 cell proliferation assay//MLL/WDR5 proliferation MV4:11 Qualified AC50
Experimental: MV4-11 6-Day Cell Growth CTG (CellTiter-Glo) Assay
Acute myeloid leukemia cell MV4-11 (ATCC® CRL-9591™) was cultured with RPMI 1640 medium (Thermo Fisher Scientific, cat #11875) supplemented with 10% FBS (Thermo Fisher Scientific, cat #10099141) in humidified incubator at 37° C., 5% CO2. To assess the effect of WDR5 inhibitor on cell growth, the compound of the present invention was dissolved in DMSO and serially diluted at 1:3 for 12 points starting from 10 mM then 200 nL for the replicate of each dose per well was dispensed to Viewplate-384 Black (Perkin Elmer). Exponentially growing MV4-11 cells were seeded at the density of 300 cells per well in 40 μL to the plate, so the final compound working concentration starts from 50 μM. After 6 days, 40 μL CellTiter-Glo (Promega, cat #G7573) was added into the cell culture well and luminescence was read with Envision (Perkin Elmer) to determine the viable cells. The percentage inhibition was calculated against the samples treated with DMSO only and the data were used for dose response curve fitting in GraphPad Prism to get the IC50 of representative compound of present invention, which reflects the inhibition of WDR5 activity in the proliferation of MV4;11.

| Compound | IC50 [1] [nM] | AC50 [2] [nM] | AC50 ([3]; Homo sapiens, MV4-11, 144 h) [nM] | AC50 [3] [nM] |
| --- | --- | --- | --- | --- |
| CCOc1cc([C@H](C)N2CCc3c(CN(C)C)cc(Cn4ccnc4NC)cc3C2=O)ncc1F (single isomer, unassigned) [Example 19] | 10 to 1000 | 10 to 1000 | 10 to 1000 | – |
| CNc1nccn1Cc1cc2c(c(N3CC(OC)C3)c1)CCN([C@@H](C)c1cc(OC)c(F)cn1)C2=O (single isomer, unassigned) [Example 90] | 10 to 1000 | 10 to 1000 | 10 to 1000 | – |
| CNc1nccn1Cc1ccc2c(c1)C(=O)N([C@@H](C)c1cnc(F)c(OC)c1)CC2 (single isomer, unassigned) [Example 94] | 10 to 1000 | 10 to 1000 | 10 to 1000 | – |
| CCOc1cc([C@H](C)N2CCc3c(cc(Cn4ccnc4C)cc3-n3nc(C)nc3C)C2=O)ncc1C#N (single isomer, unassigned) [Example 265] | < 10 | 10 to 1000 | 10 to 1000 | – |
| CCOc1cc([C@H](C)N2CCc3c(cc(Cn4ccnc4C)cc3[C@@H]3CCCN3C)C2=O)ncc1C#N (single isomer, unassigned) [Example 266] | 1000 to 25000 | 1000 to 25000 | 1000 to 25000 | – |
| CCOc1cc([C@H](C)N2CCc3c(cc(Cn4ccnc4C)cc3[C@H]3CCCN3C)C2=O)ncc1C#N (single isomer, unassigned) [Example 267] | < 10 | 10 to 1000 | 10 to 1000 | – |
| CNc1nccn1Cc1ccc2cnn(C(C)c3cnc(F)c(OC)c3)c(=O)c2c1 (stereo not shown) [Example 109, 2-(1-(6-fluoro-5-methoxypyridin-3-yl)ethyl)-7-((2-(methylamino)-1H-imidazol-1-yl)methyl)phthalazin-1(2H)-one] | 10 to 1000 | 10 to 1000 | – | – |
| CNc1nccn1Cc1ccc2ncn(C(C)c3cnc(F)c(OC)c3)c(=O)c2c1 (stereo not shown) [Example 110, 3-(1-(6-fluoro-5-methoxypyridin-3-yl)ethyl)-6-((2-(methylamino)-1H-imidazol-1-yl)methyl)quinazolin-4(3H)-one] | 10 to 1000 | 10 to 1000 | – | – |
| CCOc1cc(C(C)N2CCc3c(cc(CCN(C)CC)cc3C3=CCNCC3)C2=O)ncc1C#N (stereo not shown) [Example 159, 4-ethoxy-6-(1-(7-(2-(ethyl(methyl)amino)ethyl)-1-oxo-5-(1,2,3,6-tetrahydropyridin-4-yl)-3,4-dihydroisoquinolin-2(1H)-yl)ethyl)nicotinonitrile] | 10 to 1000 | 1000 to 25000 | – | – |
| CCOc1cc(C(C)N2CCc3c(cc(CCN(C)CC)cc3-n3cccn3)C2=O)ncc1C#N (stereo not shown) [Example 209] | 10 to 1000 | 10 to 1000 | – | – |
| CCOc1cc(CN2CCc3c(cc(Cn4ccnc4C)cc3-c3cc(C)nn3C)C2=O)ncc1C#N [Example 300] | < 10 | 10 to 1000 | – | – |
| CCOc1cc(CN2CCc3c(cc(Cn4ccnc4C)cc3-c3cn(S(C)(=O)=O)nc3C)C2=O)ncc1C#N [Example 301] | < 10 | 10 to 1000 | – | – |
| CCOc1cc([C@H](C)N2CCc3c(cc(Cn4ccnc4C)cc3-c3c[nH]nc3C)C2=O)ncc1C#N [Example 302] | < 10 | – | – | – |

Now from value to molecule, other results behind:

| IC50 [1] [nM] | AC50 [2] [nM] | Compound | AC50 ([3]; Homo sapiens, MV4-11, 144 h) [nM] | AC50 [3] [nM] |
| --- | --- | --- | --- | --- |
| < 10 | 10 to 1000 | CCOc1cc(C(C)N2CCc3c(cc(Cn4ccnc4C)cc3-c3cn(C)nc3C)C2=O)ncc1C#N (racemic) [Example 261, 6-(1-(5-(1,3-dimethyl-1H-pyrazol-4-yl)-7-((2-methyl-1H-imidazol-1-yl)methyl)-1-oxo-3,4-dihydroisoquinolin-2(1H)-yl)ethyl)-4-ethoxynicotinonitrile] | 10 to 1000 | – |
| < 10 | 10 to 1000 | CCOc1cc(C(C)N2CCc3c(cc(Cn4ccnc4C)cc3-c3cn(C)nc3C)C2=O)ncc1C#N (racemic) [Example 262, 6-(1-(5-(1,3-dimethyl-1H-pyrazol-4-yl)-7-((2-methyl-1H-imidazol-1-yl)methyl)-1-oxo-3,4-dihydroisoquinolin-2(1H)-yl)ethyl)-4-ethoxynicotinonitrile] | – | < 10 |
| < 10 | 10 to 1000 | CCOc1cc([C@H](C)N2CCc3c(Cl)cc(Cn4ccnc4NC)cc3C2=O)ncc1C#N (single isomer, unassigned) [Example 3] | 10 to 1000 | – |
| < 10 | 10 to 1000 | CNc1nccn1Cc1cc(CN2CCOCC2)c2c(c1)C(=O)N([C@@H](C)c1cc(OC)c(F)cn1)CC2 (single isomer, unassigned) [Example 7] | 10 to 1000 | – |
| < 10 | 10 to 1000 | CNc1nccn1Cc1cc(CN2CC(O)C2)c2c(c1)C(=O)N([C@@H](C)c1cc(OC)c(F)cn1)CC2 (single isomer, unassigned) [Example 51] | 10 to 1000 | – |
| < 10 | 10 to 1000 | CNc1nccn1Cc1cc2c(c(-c3cc([C@@H](C)O)cnc3Cl)c1)CCN(Cc1ccc(F)c(OC)c1)C2=O (single isomer, unassigned) [Example 75] | 10 to 1000 | – |
| < 10 | 10 to 1000 | CNc1nccn1Cc1cc2c(c(-c3cc([C@H](C)O)cnc3Cl)c1)CCN(Cc1ccc(F)c(OC)c1)C2=O (single isomer, unassigned) [Example 76] | 10 to 1000 | – |
| < 10 | 10 to 1000 | CNc1nccn1Cc1cc2c(c(C3CC3)c1)CCN([C@@H](C)c1cnc(F)c(OC)c1)C2=O (single isomer, unassigned) [Example 78] | 10 to 1000 | – |
| < 10 | 10 to 1000 | CCOc1cc([C@H](C)N2CCc3c(cc(Cn4ccnc4NC)cc3N3CCCC3)C2=O)ncc1F (single isomer, unassigned) [Example 88] | 10 to 1000 | – |
| < 10 | 10 to 1000 | CCOc1cc([C@H](C)N2CCc3c(cc(Cn4ccnc4C)cc3-c3nc(C)nn3C)C2=O)ncc1C#N (single isomer, unassigned) [Example 264] | 10 to 1000 | – |
